Read-outs that look alike come from different tables or passages of the source.
How the values were obtained:
[1] = molecular target: T1, Rat recombinant PDE10A (rPDE10A2) (Rattus norvegicus, UniProt Q9QYJ6); test: In vitro assay PDE10A (SPA, 3H-cAMP); type: biochemical; settings: read-out: PIC50 PDE10 (converted)
T1 construct: made in house; host or cells: Sf9 insect cells (baculovirus)
T1 sequence (Q9QYJ6 1-794): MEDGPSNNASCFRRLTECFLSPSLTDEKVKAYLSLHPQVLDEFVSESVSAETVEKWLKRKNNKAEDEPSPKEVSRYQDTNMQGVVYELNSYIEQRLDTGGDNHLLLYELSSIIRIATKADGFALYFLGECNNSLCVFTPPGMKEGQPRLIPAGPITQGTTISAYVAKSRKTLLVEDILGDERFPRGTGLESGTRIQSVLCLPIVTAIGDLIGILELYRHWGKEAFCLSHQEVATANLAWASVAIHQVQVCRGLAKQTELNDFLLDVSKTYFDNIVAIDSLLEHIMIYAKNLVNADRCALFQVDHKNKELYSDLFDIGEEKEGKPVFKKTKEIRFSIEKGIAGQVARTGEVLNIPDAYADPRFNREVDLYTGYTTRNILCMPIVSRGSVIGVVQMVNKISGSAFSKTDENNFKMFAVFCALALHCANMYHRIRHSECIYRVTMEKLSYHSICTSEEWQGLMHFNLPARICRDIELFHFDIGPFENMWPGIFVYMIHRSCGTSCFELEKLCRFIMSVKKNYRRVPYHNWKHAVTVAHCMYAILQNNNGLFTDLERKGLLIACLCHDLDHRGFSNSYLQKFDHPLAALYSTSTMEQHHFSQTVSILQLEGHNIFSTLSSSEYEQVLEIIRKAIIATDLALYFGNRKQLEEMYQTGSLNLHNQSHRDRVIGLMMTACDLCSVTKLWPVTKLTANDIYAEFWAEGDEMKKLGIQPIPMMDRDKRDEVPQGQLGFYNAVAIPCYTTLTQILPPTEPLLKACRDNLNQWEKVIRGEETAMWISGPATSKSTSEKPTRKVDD

[2] = tested on: Apomorphine-induced agitation; test: Reversal of Apomorphine-induced Agitation in Rats (APO); type: in vivo, rat; settings: for SC Dose at max effect / SC Max effect (cumulative agitation score over 60 min) / SC LAD (lowest active dose): subcutaneous route; for SC Max effect (cumulative agitation score over 60 min) / PO Max effect (cumulative agitation score over 60 min): apomorphine 1.0 mg/kg i.v.; for SC LAD (lowest active dose) / PO LAD (lowest active dose): lowest dose at which ≥67% tested animals respond
Procedure: Apomorphine (1.0 mg/kg, i.v.)-induced agitation was scored every 5 min over the first hour after injection of apomorphine. The score system was: (3) pronounced, (2) moderate, (1) slight, and (0) absent. […] For the present purpose, the cumulative agitation score over the whole 60-min observation period was used as a measure to describe the maximum effect (Max effect).

[3] = molecular target: T2, Human recombinant PDE2A (hPDE2A) (Homo sapiens, UniProt O00408); test: In vitro assay PDE2A (SPA, 3H-cGMP); type: biochemical; settings: read-out: pIC50 PDE2 (converted)
T2 construct: made in house; host or cells: Sf9 insect cells (baculovirus)
T2 sequence (O00408 whole entry): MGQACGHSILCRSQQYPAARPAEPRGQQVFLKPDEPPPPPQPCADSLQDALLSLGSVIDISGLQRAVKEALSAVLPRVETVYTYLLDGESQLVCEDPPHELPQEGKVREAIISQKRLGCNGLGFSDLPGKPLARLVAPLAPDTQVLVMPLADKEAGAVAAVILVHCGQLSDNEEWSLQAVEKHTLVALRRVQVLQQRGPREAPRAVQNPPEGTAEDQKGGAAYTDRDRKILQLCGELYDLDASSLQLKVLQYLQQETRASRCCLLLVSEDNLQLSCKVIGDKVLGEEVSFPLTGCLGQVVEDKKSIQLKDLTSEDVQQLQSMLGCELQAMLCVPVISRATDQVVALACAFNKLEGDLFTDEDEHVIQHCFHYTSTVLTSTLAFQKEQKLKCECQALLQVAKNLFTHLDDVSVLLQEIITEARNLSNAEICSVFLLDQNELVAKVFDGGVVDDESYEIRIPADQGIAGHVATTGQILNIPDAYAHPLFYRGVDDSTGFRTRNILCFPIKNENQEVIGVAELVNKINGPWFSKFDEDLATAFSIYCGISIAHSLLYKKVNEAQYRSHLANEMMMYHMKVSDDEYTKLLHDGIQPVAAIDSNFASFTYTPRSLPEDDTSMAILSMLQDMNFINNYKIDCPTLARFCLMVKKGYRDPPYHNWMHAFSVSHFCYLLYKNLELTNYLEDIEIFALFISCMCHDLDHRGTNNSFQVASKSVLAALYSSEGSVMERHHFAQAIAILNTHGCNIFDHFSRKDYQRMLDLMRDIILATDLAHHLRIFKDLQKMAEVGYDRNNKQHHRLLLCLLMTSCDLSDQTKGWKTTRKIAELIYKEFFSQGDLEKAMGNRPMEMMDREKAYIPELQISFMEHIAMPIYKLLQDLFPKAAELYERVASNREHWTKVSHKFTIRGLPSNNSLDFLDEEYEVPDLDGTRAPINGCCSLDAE
Procedure: Tested compounds were dissolved and diluted in 100% DMSO to a concentration 100 fold of the final concentration in the assay. Compound dilutions (0.4 μl) were added in 384 well plates to 20 μl of incubation buffer (50 mM Tris pH 7.8, 8.3 mM MgCl2, 1.7 mM EGTA). 10 μl of hPDE2A enzyme in incubation buffer was added and the reaction was started by addition of 10 μl substrate to a final concentration of 10 μM cGMP and 0.01 μCi ^3H-cGMP. The reaction was incubated for 45 minutes at room temperature. […] After sedimentation of the beads during 30 minutes the radioactivity was measured in a Perkin Elmer Topcount scintillation counter and results were expressed as cpm. For blanc values the enzyme was omitted from the reaction and replaced by incubation buffer. Control values were obtained by addition of a final concentration of 1% DMSO instead of compound.

Row | SMILES | IC50 [1] | SC Dose at max effect [2] | SC Max effect (cumulative agitation score over 60 min) [2] | SC LAD (lowest active dose) [2] | IC50 [3] | PO Dose at Max Effect [2] | PO Max effect (cumulative agitation score over 60 min) [2] | PO LAD (lowest active dose) [2] | IC50 ([1]; -log IC50 expressed in mol/L, rPDE10A2, 60 nM cAMP)
1 | Cc1nc2ccc(CNc3cccnc3)cc2n2c(-c3ccccc3Cl)nnc12 [Compound B-50] | 11 nM | 10 mg/kg | 22 | > 10 mg/kg | 2.34 nM | – | – | – | –
2 | Cc1nc2ccc(C(=O)NCc3ccccc3)cc2n2c(-c3ccccc3Cl)nnc12 [Compound B-34] | 12 nM | – | – | – | 0.372 nM | 2.5 mg/kg | 22 | > 2.5 mg/kg | –
3 | Cc1nc2ccc(CNC3CCOCC3)cc2n2c(-c3ccccc3Cl)nnc12 [Compound B-76] | 45.7 nM | 10 mg/kg | 16 | 10 mg/kg | 7.08 nM | – | – | – | –
4 | Cc1ncccc1-c1nnc2c(C)nc3ccc(C(F)(F)F)cc3n12 [Compound B-167] | 263 nM | – | – | – | 95.5 nM | 10 mg/kg | 19 | 10 mg/kg | –
5 | C=Cc1ccc2nc(C)c3nnc(-c4ccccc4Cl)n3c2c1 [Compound B-14, 1-(2-Chlorophenyl)-8-ethenyl-4-methyl[1,2,4]triazolo[4,3-a]quinoxaline] | 37.2 nM | – | – | – | 7.08 nM | 10 mg/kg | 21 | > 10 mg/kg | –
6 | Cc1nc2ccc(OCCN3CCOCC3)cc2n2c(-c3ccccc3Cl)nnc12 [Compound B-113] | 33.1 nM | 10 mg/kg | 8 | 10 mg/kg | 22.9 nM | – | – | – | –
7 | Cc1ncccc1-c1nnc2c(C)nc3ccc(Br)cc3n12 [Compound B-131] | 132 nM | – | – | – | 29.5 nM | 10 mg/kg | 17 | 10 mg/kg | –
8 | COCC1CN(Cc2ccc3nc(C)c4nnc(-c5ccccc5Cl)n4c3c2)CCO1 (stereo not drawn) [Compound B-75] | 63.1 nM | 10 mg/kg | 15 | 2.5 mg/kg | 6.92 nM | – | – | – | –
9 | Cc1nc2ccc(NCCc3ccccn3)cc2n2c(-c3ccccc3Cl)nnc12 [Compound B-60] | 6.61 nM | – | – | – | 5.01 nM | 10 mg/kg | 21 | > 10 mg/kg | –
10 | CCOc1ccc(Cl)c(-c2nnc3c(C)nc4ccc(CN5CCC(F)CC5)cc4n23)c1 [Compound B-140] | 282 nM | 10 mg/kg | 24 | > 10 mg/kg | 34.7 nM | – | – | – | –
11 | Cc1nc2ccc(C(=O)NCc3ccccn3)cc2n2c(-c3ccc(Cl)cc3Cl)nnc12 [Compound B-108] | 36.3 nM | – | – | – | 20.4 nM | 10 mg/kg | 19 | > 10 mg/kg | –
12 | Cc1nc2ccc(OCCc3ccccn3)cc2n2c(-c3ccccc3Cl)nnc12 [Compound B-15, 1-(2-Chlorophenyl)-4-methyl-8-(2-pyridin-2-ylethoxy) [1,2,4]triazolo[4,3-a]quinoxaline] | 16.2 nM | 10 mg/kg | 10 | 2.5 mg/kg | 8.71 nM | – | – | – | –
13 | Cc1nc2ccc(C(=O)NC3CCN(C)CC3)cc2n2c(-c3ccccc3Cl)nnc12 [Compound B-47] | 145 nM | 10 mg/kg | 22 | > 10 mg/kg | 2.04 nM | – | – | – | –
14 | Cc1nc2ccc(OC(C)(F)F)cc2n2c(-c3ccccc3Cl)nnc12 [Compound B-25, 1-(2-Chlorophenyl)-8-(1,1-difluoroethoxy)-4-methyl[1,2,4]triazolo[4,3-a]-quinoxaline] | 15.5 nM | – | – | – | 3.89 nM | 10 mg/kg | 19 | 10 mg/kg | –
15 | COCCNc1ccc2nc(C)c3nnc(-c4ccccc4Cl)n3c2c1 [Compound B-67] | 15.5 nM | – | – | – | 6.17 nM | 10 mg/kg | 21 | > 10 mg/kg | –
16 | Cc1nc2ccc(C(=O)NCc3ccccn3)cc2n2c(-c3cc(F)ccc3Cl)nnc12 [Compound B-39] | 24 nM | – | – | – | 1 nM | 10 mg/kg | 21 | > 10 mg/kg | –
17 | Cc1nc2ccc(NCCN3CCOCC3)cc2n2c(-c3ccccc3Cl)nnc12 [Compound B-71] | 19.1 nM | 10 mg/kg | 15 | 10 mg/kg | 6.31 nM | – | – | – | –
18 | CCOCc1ccc2nc(C)c3nnc(-c4ccccc4)n3c2c1 [Compound B-12, 8-(Ethoxymethyl)-4-methyl-1-phenyl[1,2,4]triazolo[4,3-a]quinoxaline] | 269 nM | 10 mg/kg | 19 | 10 mg/kg | 21.4 nM | – | – | – | –
19 | Cc1nc2ccc(C(=O)NCCN3CCCCC3)cc2n2c(-c3ccccc3Cl)nnc12 [Compound B-45] | 74.1 nM | 10 mg/kg | 21 | > 10 mg/kg | 1.95 nM | – | – | – | –
20 | Cc1nc2ccc(OC(F)(F)F)cc2n2c(-c3ccccc3Cl)nnc12 [Compound B-4a, 1-(2-Chlorophenyl)-4-methyl-8-(trifluoromethoxy)[1,2,4]triazolo[4,3-a]quinoxaline] | 24.5 nM | – | – | – | 8.32 nM | 10 mg/kg | 21 | > 10 mg/kg | –
21 | Cc1nc2ccc(C(=O)N(C)Cc3ccccc3)cc2n2c(-c3ccccc3)nnc12 [Compound B-104] | 204 nM | 2.5 mg/kg | 21 | > 2.5 mg/kg | 19.1 nM | – | – | – | –
22 | COCC1CCN(Cc2ccc3nc(C)c4nnc(-c5ccccc5Cl)n4c3c2)C1 (stereo not drawn) [Compound B-94] | 64.6 nM | 5 mg/kg | 24 | > 5 mg/kg | 12.9 nM | – | – | – | –
23 | Cc1nc2ccc(C(=O)NCCO)cc2n2c(-c3ccccc3Cl)nnc12 [Compound B-42] | 29.5 nM | – | – | – | 1.51 nM | 10 mg/kg | 22 | > 10 mg/kg | –
24 | Cc1nc2ccc(C(=O)NCCc3ccccc3)cc2n2c(-c3ccccc3)nnc12 [Compound B-54] | 93.3 nM | – | – | – | 3.47 nM | 2.5 mg/kg | 22 | > 2.5 mg/kg | –
25 | Cc1nc2ccc(C(=O)NCCF)cc2n2c(-c3ccccc3Cl)nnc12 [Compound B-40] | 18.6 nM | – | – | – | 1.02 nM | 10 mg/kg | 22 | > 10 mg/kg | –
26 | Cc1ncccc1-c1nnc2c(C)nc3ccc(CN4CCOCC4)cc3n12 [Compound B-118] | 117 nM | 10 mg/kg | 17 | 10 mg/kg | 25.7 nM | – | – | – | –
27 | Cc1nc2ccc(CN3CCC(O)CC3)cc2n2c(-c3ccccc3Cl)nnc12 [Compound B-81] | – | 10 mg/kg | 19 | 10 mg/kg | 9.55 nM | – | – | – | 37.2 nM
28 | Cc1nc2ccc(O)cc2n2c(-c3ccccc3Cl)nnc12 [Compound B-13, 1-(2-Chlorophenyl)-4-methyl[1,2,4]triazolo[4,3-a]quinoxalin-8-ol] | 45.7 nM | – | – | – | 2 nM | 10 mg/kg | 19 | 10 mg/kg | –
29 | CCOc1ccc(Cl)c(-c2nnc3c(C)nc4ccc(CN5CCN(C)CC5)cc4n23)c1 [Compound B-145] | 240 nM | 10 mg/kg | 22 | > 10 mg/kg | 40.7 nM | – | – | – | –
30 | Cc1nc2cc(OCCc3ccccn3)ccc2n2c(-c3ccccc3Cl)nnc12 [Compound B-139] | 63.1 nM | – | – | – | 34.7 nM | 10 mg/kg | 22 | > 10 mg/kg | –

Reference: patent US10604523B2, “1-aryl-4-methyl-[1,2,4]triazolo[4,3-a]quinoxaline derivatives” (Janssen Pharmaceutica NV, priority 2011, dated 2020)
